Patent publication US8299097B2, “Methods for treating inflammatory disorders” (The Brigham and Women's Hospital, Inc., priority 2008, dated 2012)

Columns and labels:
P2Y12 receptors = assay: Competitive radioligand binding of [H^3]ADP to LAD2 cell membranes; parameters: species or system human
Procedure: (§1) FIG. 10. Competitive ligand binding assays. 10A. […] Specific binding (typically 50-75% of the total) was calculated by subtracting the amount of radiolabel that was insensitive to the selective P2Y12 receptor antagonist 2-MesAMP. Nonspecific binding was essentially identical in the membranes with and without P2Y12 receptor knockdown. The dose response for the LAD2 membranes are from a single experiment repeated four times with similar results. The binding on the LAD2 cells with P2Y12 knocked down was repeated twice. 10B. Specific binding of radiolabeled ADP (2000 nM) to membranes of LAD2 cells. […] Results are mean±SD from three separate experiments. 10C. Conversion of radiolabeled LTD4 to LTE4 as confirmed by HPLC (left). […] Results in a second experiment were similar 10D. Competitive binding of radiolabeled 2-MesADP to COS-7 cells transfected with the human P2Y12 construct.
Competitive radioligand binding assays were performed using [H^3]ADP (the known natural ligand of P2Y12 receptors) and unlabeled LTs as competitors. […] The membranes from the transfectants expressing the forward construct bound [P^33]2-MesADP, a selective P2Y12 receptor agonist.
[^3H] […] The converted product was extracted into 400 μl of methanol, evaporated in presence of nitrogen and diluted to the required concentration with the binding buffer for the binding assay. The conversion was confirmed by running an aliquot on high-performance reverse phase liquid chromatography. […] Briefly, cells were washed in PBS, resuspended in PBS supplemented with protease inhibitor cocktail and lysed by sonication for 5 min. The lysed cells were centrifuged at 100,000 Xg for 45 min and the microsomal pellet was resuspended in 1 ml PBS. Protein concentration was determined using Biorad Protein Assay Kit. 50 μg of membrane protein was incubated for 1 h at room temperature in 250 μl of 10 mM Hepes/KOH, pH 7.4, with various concentrations of radiolabeled ligand and cold competitor. Bound [^3H] was separated from free [^3H] by filtration through GF/C filters (Whatman) and washed twice with 10 mM Hepes/KOH, pH 7.4, containing 0.01% BSA. The residual membrane-associated [^3H] on the filter was determined in 2 ml scintillation fluid by beta counter (Perkin Elmer). For [^3H]ADP, specific binding was determined by subtracting the amount of [^3H] bound in the presence of 100 μM 2-MesADP from total binding.

[1] = Direct binding of [H^3]LTE4 to LAD2 cell membranes; parameters: species or system human
Procedure: as §1
Competitive radioligand binding assays were performed using [H^3]ADP (the known natural ligand of P2Y12 receptors) and unlabeled LTs as competitors. […]
[^3H] […] Protein concentration was determined using Biorad Protein Assay Kit. […] The residual membrane-associated [^3H] on the filter was determined in 2 ml scintillation fluid by beta counter (Perkin Elmer). For [^3H]ADP, specific binding was determined by subtracting the amount of [^3H] bound in the presence of 100 μM 2-MesADP from total binding.

Cysltr1/Cysltr2^−/− mice = assay: LTE4 amplification of pulmonary inflammation in mice lacking both CysLT1R and CysLT2R; type: in vivo, mouse
Procedure: FIG. 4. […] 4A. […] Clopidogrel (500 μg/ml) was added to the drinking water of the indicated groups of mice for 72 h before the first intranasal dose of LTs, and was maintained throughout the treatment. Results are mean±SEM from at least 9 mice in each group. The experiments were repeated three times with similar results. 4B. PAS stains (left column) from representative mice in the indicated groups showing the effect of clopidigrel on goblet cell metaplasia. Higher magnification images of H & E stains (right) from the same animals showing cellular characteristics of the bronchovascular infiltrates. 4C. Effect of clopidogrel administration on the steady-state expression of IL-13 and MUC5AC mRNA as determined by real-time PCR of whole lung RNA extracted 24 h after the last OVA challenge of the indicated groups. Data are mean±SEM from 4-5 mice/group from a single experiment. Results in a second experiment were similar 4D-4F. […] 4D. Total cell numbers (top), percentages of eosinophils (middle), and total numbers of eosinophils in BAL fluid recovered 24 h after the last challenge with OVA. 4E. Goblet cell metaplasia (top) and representative PAS stains (bottom) from wild-type and p2ry12^−/− mice subjected to the same protocol. 4E. Inflammation scores from the same mice. Data in 4D-4F are from 4 mice per group. […] Quantitative assessment of bronchovascular inflammation as determined by H & E stains. […]

CCCCC/C=C\C\C=C/C=C/C=C/[C@@H](SC[C@H](N)C(=O)O)[C@@H](O)CCCC(=O)O [LTE4]
specific ADP binding blocked (P2Y12 receptors; unlabeled LTE4 0.1 nM, mean±SEM, four experiments): 39±9% | specific ADP binding blocked (P2Y12 receptors; unlabeled LTE4 1 nM, mean±SEM, four experiments): 50±9% | specific ADP binding blocked (plateau) (P2Y12 receptors; unlabeled LTE4 1 μM, mean±SEM, four experiments): 60±7% | competition with labeled ADP, LTE4 compared with LTD4 (P2Y12 receptors; unlabeled competitors 10 μM): more efficacious than LTD4 | binding of [H^3]LTE4 to LAD2 cell membranes [1]: weakly bound | potentiation of OVA-induced BAL fluid eosinophilia, goblet cell metaplasia and inflammation (Cysltr1/Cysltr2^−/− mice): completely intact
